Data: US8216607B2, “Combination of ceramide and gemcitabine for inducing cell death and uses thereof in treating cancer” (priority 2008, dated 2012)
Like-named read-outs stand apart in the source and are kept apart here.

How the values were obtained:
[1] = test system: L3.6 human pancreatic adeno-carcinoma
Protocol: Pancreatic adenocarcinoma (PA), the fifth most common cause of cancer death in the United States is commonly metastatic and unresectable and is poorly responsive to therapy. […] The in vitro cytotoxicity effect of gemcitabine+/−C6 ceramide versus L3.6 pancreatic cancer cell line were measured using MTT assay. In vivo experiments were performed using SCID/Beige/Taconic male mice, 22-25 g, 6-8 weeks old (Taconic Laboratory, Germantown, N.Y., USA). Mice were inoculated s.c. with 2×106L3.6 PA cells. Four days later mice developed primary tumors and chemotherapy was started. Mice were treated 3 times/week for 4 weeks with i.p. injections of gemcitabine (5.0-10.0-15.0 mg/kg) and C6 ceramide (10.0 mg/kg) or combinations of these drugs. Body weight (BW) and diameters of tumors (TD) were measured every week. Diameters of tumors were used to count the volumes of primary tumors: TV. We also studied percent survival and mean survival time (MST). In these experiments we used the new test: mean rate tumor development (MRTD) which reflects the speed of tumor development and was measured by the formula: MTV/MST.
In vivo experiments utilized SCID/Beige/Taconic male mice inoculated S.C. with 2×106 L3.6 pancreatic cells which were treated 4 days post tumor implant with thrice weekly (3×/wk) intraperitoneal (IP) injections of paclitaxel (P) 3.0 mg/kg, oxaliplatin (OX) 2.5 mg/kg, cisplatin (CP) 2.5 mg/kg, gemcitabine (Gem) 15 mg/kg with or without ceramide 10 mg/kg. Chemotherapy dose levels were based on standardized clinical dosing as modified from in vitro data. […] Maximum tumor volume, tumor weight, body weight and survival were recorded. […] Separate histopathology studies recorded short term effects on tumor necrosis, mitotic index and caspase index.

[2] = test system: L3.6 pancreatic cancer cell line
[3] = dose column 10 mg/kg (gemcitabine or ceramide alone; ceramide 10 mg/kg in combination)

Row | SMILES | anti-tumor regression and survival induced by Oxaliplatin and Gemcitabine ([1]; combination therapy) | Tumor Size (cc) ([1]; dose column 10 mg/kg) | Mean Survival Time [1, 3] [days] | anti tumor effects of co-administered drugs ([1]; with Paclitaxel, Doxorubicin, Cisplatin, Oxaliplatin, Gemcitabine) | effect on cytotoxicity induced by low dose cisplatin and oxaliplatin [2] | % Survival @ 3 Weeks ([1]; 3 weeks) [%] | % Survival @ 6 Weeks ([1]; 6 weeks) [%] | Tumor Size (cc) ([1]; dose column 5 mg/kg) | Mean Survival Time ([1]; dose column 5 mg/kg (gemcitabine; ceramide 10 mg/kg in combination)) [days] | Tumor Size (cc) ([1]; dose column 15 mg/kg) | Mean Survival Time ([1]; dose column 15 mg/kg (gemcitabine; ceramide 10 mg/kg in combination)) [days] | Mean Final Tumor Volume ([1]; i.p. 3x/wk from day 4, paclitaxel 3.0, oxaliplatin 2.5, cisplatin 2.5, gemcitabine 15, ceramide 10 mg/kg, observed 6 weeks, in cm³) | Mean Survival Time ([1]; i.p. 3x/wk, paclitaxel 3.0, oxaliplatin 2.5, cisplatin 2.5, gemcitabine 15, ceramide 10 mg/kg) [days] | Mean Body Weight (g) (Time of Death or Sacrifice) ([1]; time of death or sacrifice)
1 | CCCCCCCCCCCCC/C=C/[C@@H](O)[C@H](CO)NC(=O)CCCCC [Ceramide, N-hexanoyl-D-sphingosine] | significantly enhanced | 0.253 | 27.8 ± 10.2 | augmented the anti tumor effects | parallel effects | – | – | – | – | – | – | – | – | –
2 | Nc1ccn([C@@H]2O[C@H](CO)[C@@H](O)C2(F)F)c(=O)n1 [Gemcitabine] | – | 0.376 | 27.8 ± 10.2 | – | – | 40 | 0 | 0.412 | 19.6 ± 3.6 | 0.439 | 23.2 ± 5.9 | 1.10 +/−^ | 22.8 ± 4.5 | 15.6
